The values below are quoted from earlier work in patent US7208517B1, “Endothelin antagonists” (Abbott Labortories, priority 1994, dated 2007).

Molecules are shown by their SMILES.

Data set [1] concerns post-ischaemic renal vasoconstriction. The settings on record: rats; cited from earlier work.
The next data set deals with MAP. The settings on record: sodium-depleted squirrel monkeys; dosed orally; cited from earlier work.
For data set [2], the system named is decrease in cerebral blood flow due to subarachnoid hemorrhage (SAH). Conditions: rats; cited from earlier work.

As to `COc1cccc(Oc2c(NS(=O)(=O)c3ccc(C(C)(C)C)cc3)ncnc2OCCO)c1` [Ro 46–2005], in data set [1], the post-ischaemic renal vasoconstriction entry was “prevents post-ischaemic renal vasoconstriction”. Moreover, the MAP result in the data set with MAP is recorded as “decreases MAP”. The “decrease in cerebral blood flow due to subarachnoid hemorrhage (SAH)” value in data set [2] is listed as “prevents the decrease in cerebral blood flow due to subarachnoid hemorrhage (SAH)”.
